Source: US20250360107A1, “USE OF MAZINDOL TO TREAT NERVOUS SYSTEM DISORDERS” (AXSOME THERAPEUTICS, INC., priority 2022, published 2025)
“And” between values parts separate entries of the source, which are not always exact repeats. Equal entries are not always repeated.

Assays:
[1] = human patients; without controlled release coating; cited from earlier work
[2] = tested on: narcolepsy with cataplexy; experiment: Number of cataplexy attacks in a patient with narcolepsy with cataplexy; assay type: in vivo, human; settings: single patient, 5 mg at 8 am and 5 mg at 1 pm each day
Experimental: (§1) A person is diagnosed as suffering from narcolepsy with cataplexy. They are given mazindol and instructed to take 5 mg of mazindol at 8 am and 5 mg of mazindol at 1 pm each day for three weeks. The patient is evaluated prior to treatment, and weekly to determine the MWT score, the number of cataplexy attacks, the PGI-C score, the HAM-D score, the ESS score, the NSAQ score, and the ability to concentrate on the NSAQ. After one week of treatment, the number of cataplexy attacks have decreased by 10-30%.
as §1, with “30-60%.” for “10-30%.”
A person is diagnosed as suffering from narcolepsy with cataplexy. […]
(§2) A person is diagnosed as suffering from narcolepsy with cataplexy. […] The patient is evaluated prior to treatment, and weekly to determine the MWT score, the number of cataplexy attacks, the PGI-C score, the HAM-D score, the ESS score, the NSAQ score, and the ability to concentrate on the NSAQ. […]

[3] = tested on: narcolepsy with cataplexy; experiment: Hamilton Depression Rating Scale (HAM-D) score in a patient with narcolepsy with cataplexy; assay type: in vivo, human; settings: single patient; 5 mg at 8 am and 5 mg at 1 pm each day; after three weeks of treatment
Experimental: (§3) A person is diagnosed as suffering from narcolepsy with cataplexy. They are given mazindol and instructed to take 5 mg of mazindol at 8 am and 5 mg of mazindol at 1 pm […] After three weeks of treatment, the HAM-D score has decreased by 10-30%.
as §1, with “three weeks” for “one week”, “HAM-D score has” for “number of cataplexy attacks have”, “30-60%.” for “10-30%.”
as §1, with “three weeks” for “one week”, “HAM-D score has” for “number of cataplexy attacks have”, “60-100%.” for “10-30%.”

[4] = tested on: narcolepsy with cataplexy; experiment: Maintenance of Wakefulness Test (MWT) score in a patient with narcolepsy with cataplexy; assay type: in vivo, human; settings: single patient, 5 mg at 8 am and 5 mg at 1 pm each day
Experimental: as §3, with “one week” for “three weeks”, “MWT” for “HAM-D”, “increased” for “decreased”
as §1, with “MWT score has increased” for “number of cataplexy attacks have decreased”, “30-60%.” for “10-30%.”
as §2, §2

[5] = tested on: narcolepsy with cataplexy; experiment: Epworth Sleepiness Scale (ESS) score in a patient with narcolepsy with cataplexy; assay type: in vivo, human; settings: single patient, 5 mg at 8 am and 5 mg at 1 pm each day
Experimental: as §1, with “ESS score has” for “number of cataplexy attacks have”
as §1, with “ESS score has” for “number of cataplexy attacks have”, “30-60%.” for “10-30%.”
as §1, with “After one week of treatment, the number of cataplexy attacks have decreased by 10-30%.” left out

OC1(c2ccc(Cl)cc2)c2ccccc2C2=NCCN21 (centres unmarked) [mazindol]
2 to 4 h: time to reach a maximum plasma concentration [1]
10-30% and 30-60% and 60-100%: decrease in the number of cataplexy attacks ([2]; after one week of treatment) | decrease in the number of cataplexy attacks ([2]; after three weeks of treatment) | decrease in HAM-D score [3] | increase in MWT score ([4]; after one week of treatment) | increase in MWT score ([4]; after three weeks of treatment) | decrease in ESS score ([5]; after one week of treatment) | decrease in ESS score ([5]; after three weeks of treatment)
